The results in this text go back to ChEMBL document CHEMBL1144758, “Semisynthetic studies on the manzamine alkaloids” (J Nat Prod, 2008).

For assay [1], the system named is Mycobacterium tuberculosis. As to the kind of experiment: Antibacterial activity against Mycobacterium tuberculosis H37Rv by microplate alamar blue assay. It is filed as functional. Further details: Activity: concentration or dose not given beside the values. To be noted: for MIC: Mycobacterium tuberculosis, H37Rv. (The colour change of resazurin is a common sign of viable cells or microbes.)

Assay [2] relates to Microglia. As to the kind of experiment: Antiinflammatory activity in Escherichia coli lipopolysaccharide-activated rat neonatal microglia assessed as inhibition of oxygen radical at 30 uM. It is filed as functional.
In assay [3] the test system is Microglia. As to the kind of experiment: Antiinflammatory activity in Escherichia coli lipopolysaccharide-activated rat neonatal microglia assessed as inhibition of eicosanoid thromboxane B2 at 30 uM. The class given is functional, cell-based.
The next assay relates to P388. The experiment in a line: Cytotoxicity against mouse P388 cells. The class given is functional, cell-based.
The subject of assay [4] is Microglia. As to the kind of experiment: Antiinflammatory activity in Escherichia coli lipopolysaccharide-activated rat neonatal microglia assessed as inhibition of oxygen radical. The class given is functional, cell-based.
A short description of assay [5]: Antiinflammatory activity in Escherichia coli lipopolysaccharide-activated rat neonatal microglia assessed as inhibition of eicosanoid thromboxane B2. The class given is functional, cell-based.
The test system of assay [6] is Mycobacterium tuberculosis. As to the kind of experiment: Antibacterial activity against Mycobacterium tuberculosis H37Rv at 0.5 ug/mL by microplate alamar blue assay. It is filed as functional.

In brackets after ≈: the same amount, converted by molar mass. Activity calls are given as the source filed them. No cut-off for these calls is given here.

As to `CC(=O)Oc1cccc2c1[nH]c1c([C@@H]3C=C4CC/C=C\CCCCN5CC[C@H]3[C@]3(C5)C(C(C)=O)=C5/C=C\CCCCN5[C@H]43)nccc12`, in assay [1], the Activity worked out at 95% and the MIC (as a rule, the lowest concentration found to suppress growth) is under 12.5 µg/mL. Moreover, the outcome in the assay with Microglia [2] was inactive. Besides, the outcome in the assay on Microglia [3] was inactive.
With `CC(=O)C1=C2/C(C(C)=O)=C\CCCCN2[C@H]2C3=C[C@H](c4nccc5c4[nH]c4ccccc45)[C@@H]4CCN(CCCC/C=C\CC3)C[C@]124`, in assay [1], the Activity is 95% and the MIC is under 12.5 µg/mL. In the assay with Microglia [2], the outcome was inactive. Further, the outcome in the assay on Microglia [3] was inactive.
In assay [1], `CC(=O)Oc1cccc2c1[nH]c1c(C3=C[C@]4(OC(C)=O)CC/C=C\CCCCN5CC[C@H]3[C@@]3(C[C@H]6/C=C\CCCCN6[C@@H]34)C5)nccc12` yielded an Activity of 95% and an MIC of under 12.5 µg/mL. Besides, the outcome with Microglia [2] was inactive. Besides, in the assay with Microglia [3], the result was inactive.
In assay [1], `CC(=O)O/C(C)=C1\C[C@@H](OC(C)=O)CCCN2C1=C(C(C)=O)[C@@]13CN4CCCC/C=C\CCC(=C[C@@H](c5nccc6c5[nH]c5c(OC(C)=O)cccc56)[C@H]1CC4)[C@@H]23` gave an Activity of 95% and an MIC of under 12.5 µg/mL. Also, the outcome in the assay on Microglia [2] was inactive. Moreover, the result in the assay on Microglia [3] was inactive.
Take `CC(=O)Oc1cccc2c1[nH]c1c([C@@H]3C=C4CC/C=C\CCCCN5CC[C@H]3[C@]3(C5)C(C(C)=O)=C5/C(C(C)=O)=C\CCCCN5[C@H]43)nccc12`: in assay [1], the Activity is recorded as 95%. Further, the MIC in assay [1] is under 12.5 µg/mL. Further, the result in the assay with Microglia [2] and in the assay with Microglia [3] was inactive.
For the molecule `Oc1cccc2c1[nH]c1c(C3=C[C@]4(O)CCCCCCCCN5CC[C@H]3[C@@]3(C[C@H]6CCCCCCN6[C@@H]34)C5)nccc12`, in assay [1], the Activity is recorded as 95% and the MIC is under 12.5 µg/mL. Also, in the assay on Microglia [2], the result was inactive. Further, the result with Microglia [3] was inactive.
For `Oc1cccc2c1[nH]c1c(C3=C[C@@]4(O)CC/C=C\CCCCN5CC[C@@H]3[C@]3(CC6/C=C\CCCCN6[C@H]34)C5)nccc12` (some centres undefined), in assay [1], the Activity was found to be 100% and the MIC is under 6.25 µg/mL. Also, in the assay with P388, the IC50 – broadly, the midpoint of a concentration-inhibition curve – was over 20 µg/mL. In addition, in the assay on Microglia [2], the outcome was inactive. In the assay with Microglia [3], the result was inactive.
For `CC(=O)C1=C2/C=C\CCCCN2[C@H]2C3=C[C@H](c4nccc5c4[nH]c4ccccc45)[C@@H]4CCN(CCCC/C=C\CC3)C[C@]124`, the outcome with Microglia [2] and with Microglia [3] was inactive.
As for `Oc1cccc2c1[nH]c1c([C@H]3C[C@@]4(O)CCCCCCCCN5CC[C@@H]3[C@]3(C[C@@H]6CCCCCCN6[C@@H]43)C5)nccc12` [10,11,15,16,32,33-HEXAHYDRO-8-HYDROXYMANZAMINE A], in assay [1], the Activity is given as 95% and the MIC is under 12.5 µg/mL. The result in the assay on Microglia [4] was inactive. The IC50 in assay [5] is 1970 nM.
In assay [1], `Oc1cccc2c1[nH]c1c(C3=C[C@@]4(O)CCCCCCCCN5CC[C@@H]3[C@]3(C[C@@H]6CCCCCCN6[C@H]34)C5)nccc12` [15,16,32,33-TETRAHYDRO-8-HYDROXYMANZAMINE A] had an Activity of 95% and an MIC of under 12.5 µg/mL. Further, in the assay with Microglia [2], the outcome was inactive. Further, in the assay with Microglia [3], the result was inactive.
On to `Oc1cccc2c1[nH]c1c(C3=C[C@]4(O)CC/C=C\CCCCN5CC[C@H]3[C@@]3(C[C@H]6CC[C@@H](O)CCCN6[C@@H]34)C5)nccc12` [31ALPHA-HYDROXY-32,33-DIHYDRO-8-HYDROXYMANZAMINE A], for which the Activity in assay [1] was 61%. Besides, the result in the assay with Microglia [2] and in the assay on Microglia [3] was inactive.
In assay [1], `Oc1cccc2c1[nH]c1c(C3=C[C@]4(O)CC/C=C\CCCCN5CC[C@H]3[C@@]3(C[C@H]6CC[C@H](O)CCCN6[C@@H]34)C5)nccc12` [31BETA-HYDROXY-32,33-DIHYDRO-8-HYDROXYMANZAMINE A] returned an Activity of 100% and an MIC of under 6.25 µg/mL. Further, the outcome with Microglia [2] was inactive. For the same molecule, in the assay on Microglia [3], the outcome was inactive.
In assay [1], `O[C@]12C=C(c3nccc4c3[nH]c3ccccc34)[C@@H]3CCN(CCCC/C=C\CC1)C[C@@]31C[C@@H]3CCCCCCN3[C@H]12` [32,33-DIHYDROMANZAMINE A] yielded an Activity of 95% and an MIC of under 12.5 µg/mL. For the same molecule, the outcome in the assay on Microglia [2] was inactive. In the assay on Microglia [3], the outcome was inactive.
In assay [1], `Oc1cccc2c1[nH]c1c(C3=C[C@]4(O)CC/C=C\CCCCN5CC[C@H]3[C@@]3(C[C@H]6/C=C\CCCCN6[C@@H]34)C5)nccc12` [ENT-8-HYDROXYMENZAMINE A] had an Activity of 95% and an MIC of under 12.5 µg/mL. Besides, the outcome with Microglia [4] was inactive. The same molecule came in with an IC50 with P388 of 0.25 µg/mL (≈ 0.443 µM). Also, the IC50 in assay [5] is 250 nM.
For `O[C@]12C=C(c3nccc4c3[nH]c3ccccc34)[C@@H]3CCN(CCCC/C=C\CC1)C[C@@]31C[C@@H]3/C=C\CCCCN3[C@H]12` [MANZAMINE A], in assay [1], the Activity was determined as 95% and the MIC was under 12.5 µg/mL. In the assay with Microglia [4], the outcome was inactive. In addition, the IC50 in assay [5] is under 100 nM.
Turning to `O=C1CCCN2[C@@H](CC1)C[C@]13CN4CCCC/C=C\CC[C@](O)(C=C(c5nccc6c5[nH]c5c(O)cccc56)C1CC4)[C@H]23` (some centres undefined) [MANZAMINE F], in assay [1], the Activity worked out at 95%. The molecule further showed an MIC in assay [1] of under 12.5 µg/mL. Further, the result in the assay with Microglia [2] and with Microglia [3] was inactive.
`O[C@@H]1CCCN2CC[C@@H]1O[C@@]13CC[C@@H](OC[C@]45CN6CCCC/C=C\CC[C@](O)(C=C(c7nccc8c7[nH]c7ccccc78)[C@@H]4CC6)[C@H]25)[C@@H](O)CCN1[C@@H]1[C@]2(CN4CCCC/C=C\CC[C@]1(O)C=C(c1nccc5c1[nH]c1ccccc15)[C@@H]2CC4)C3` [NEO-KAULUAMINE] displayed an Activity in assay [1] of 44%.
In assay [6], `CO[C@H]1/C=C/O[C@@]2(C)Oc3c(C)c(O)c4c(O)c(c(/C=N/N5CCN(C)CC5)c(O)c4c3C2=O)NC(=O)/C(C)=C\C=C\[C@H](C)[C@H](O)[C@@H](C)[C@@H](O)[C@@H](C)[C@H](OC(C)=O)[C@@H]1C` [RIFAMPIN] returned an Activity of 100%.
Consider `O[C@]12C=C(c3nccc4c3[nH]c3ccccc34)[C@@H]3CCN(CCCCCCCC1)C[C@@]31C[C@@H]3CCCCCCN3[C@H]12` [TETRAHYDROMANZAMINE A], for which, in assay [1], the Activity is reported as 95% and the MIC was under 12.5 µg/mL. Further, the outcome with Microglia [2] was inactive. Further, the outcome in the assay with Microglia [3] was inactive.
